Measured values: patent US4531001A, “2-β-D-ribofuranosylselenazole-4-carboxamide compounds” (priority 1983, dated 1985)
Values after ≈ are worked out from the molar mass of the structure shown. Values joined by “and” are separate entries in the source; they are usually repeats but may differ in a detail not shown here. Equal entries are not always repeated. Where two headings read alike, the source gives them in different places.

Assays:
[1] = Solubility in aqueous media
Lewis lung carcinoma [2] = assay: Lewis lung in vivo mouse model, low doses, Example 13 (Table III); set-up: species or system B6 D2 F1 female mice; details: for Treated Group Survival Time: control 20.2
Procedure: (§1) As illustrative examples of the antitumor use of COMPOUNDS 1 and 2, Examples 12 through 14, below, are given. […] The tests utilized in these illustrative examples were conducted by the Developmental Therapeutics Program, Division of Cancer Treatment, National Cancer Institute. The tests were supervised by this agency utilizing their standard protocols and procedures. All tests conformed to these protocols and all tests were evaluated under the criteria defined by these protocols. The following representative examples illustrate confirmed activity of the illustrative compounds of the invention against screening tumor systems of the National Cancer Institute.
(§2) For purposes of the following examples, the abbreviation IP stands for intraperitoneal and IV stands for intravenous. The mean and median survival times are calculated in instruction 14 (revised 6/78) of the Screening Data Summary, Developmental Therapeutics Program, Division of Cancer Treatment, National Cancer Institute. The contents of this Screening Data Summary including appropriate revisions are herein incorporated by reference.
(§3) In the illustrated examples below, the vehicle used as carrier for the drug was injected (minus any drug therein) into the control animals at the same level of use of the vehicle in the drug treated animals in order to eliminate any vehicle effect of the tests.
COMPOUND 1 was further tested in a Lewis lung in vivo mouse model using B6 D2 F1 female mice challenged with Lewis lung carcinoma.

Vero cells = assay: Toxicity to Vero cells; details: 1000 ug/ml (highest concentration tested)
P388 = assay: Growth inhibition in suspension cell culture, P388; format: cell-based; details: Mus musculus, 72 hours, cell count 50 percent of untreated control, read-out: ID50 (the source's name)
Procedure: (§4) In further tests, growth-inhibitory effects of COMPOUND 1 and COMPOUND 2 were measured against 3 mouse tumor lines in suspension cell culture. Cell cultures were initiated at a density of 50,000 cells/ml in medium RPMI 1630 supplemented with 10 percent fetal calf serum. Composition of this culture medium and details of the culture procedure followed the published method (G. E. Moore, A. A. Sandberg and K. Ulrich, Suspension Cell Culture and in vivo and in-vitro chromosome constitution of mouse leukemia L1210, Journal of the National Cancer Institute 36, 405-415, 1966). Cultures were maintained at 37 degrees in stationary suspension culture under a 95 percent air+5 percent CO2 atmosphere. Test compounds were added to treated cultures at the time of initiation, and were present continually. After 72 hours, 40-fold dilutions of drug-treated and untreated control cultures were prepared in 0.9 percent NACl solution, and cells were counted on an electronic particle counter. The growth-inhibitory effects are expressed as ID50 values, namely, test compound inhibitory dosages or concentrations required to decrease cell count in treated cultures to 50 percent of the cell count of untreated control cultures.

VSV = assay: microbe, parasite or virus in culture; format: cell-based; details: for Virus Rating: >1.0 definite, 0.5-0.9 moderate, <0.5 slight or no activity; for EC50: Vesicular stomatitis virus, read-out: ED50
Measles = assay: Antiviral activity (virus rating method); format: cell-based; details: for Virus Rating: >1.0 definite, 0.5-0.9 moderate, <0.5 slight or no activity; for EC50: Measles morbillivirus, read-out: ED50 (the source's name)
From the text: (§5) Microbiol. 22, 797 (1971). A virus rating that is greater than 1.0 indicates definite antiviral activity. […] The results reported below were obtained by testing on Microtest II (Falcon Plastics) plastic panels with a monolayer of Vero or HeLa cells.

Ad-2 = assay: Antiviral activity (virus rating method); format: cell-based
From the text: as §5

HSV-2 = assay: Antiviral activity (virus rating method); format: cell-based; details: for Virus Rating: >1.0 definite, 0.5-0.9 moderate, <0.5 slight or no activity; for EC50: read-out: ED50 (the source's name)
From the text: as §5

Mumps = assay: Antiviral activity (virus rating method); format: cell-based; details: for Virus Rating: >1.0 definite, 0.5-0.9 moderate, <0.5 slight or no activity; for EC50: read-out: ED50 (the source's name)
From the text: as §5

Reo 3 = assay: Antiviral activity (virus rating method); format: cell-based; details: for Virus Rating: >1.0 definite, 0.5-0.9 moderate, <0.5 slight or no activity; for EC50: read-out: ED50 (the source's name)
From the text: as §5

Cox B1 = assay: Antiviral activity (virus rating method); format: cell-based; details: for Virus Rating: >1.0 definite, 0.5-0.9 moderate, <0.5 slight or no activity; for EC50: read-out: ED50 (the source's name)
From the text: as §5

HSV-1 = assay: Antiviral activity (virus rating method); format: cell-based; details: for Virus Rating: >1.0 definite, 0.5-0.9 moderate, <0.5 slight or no activity; for EC50: read-out: ED50 (the source's name)
From the text: as §5

cell culture = assay: Cytotoxicity in cell culture
3 mouse tumor lines = assay: Growth inhibition in suspension cell culture, representative tumor lines; format: cell-based; details: representative tumor lines in cell culture
Procedure: as §4

Lewis lung carcinoma [3] = assay: Antitumor activity against Lewis lung carcinoma, Example 13 (Table II); format: in vivo, B6 D2 F1 female mice; details: for Treated Group Survival Time: median, control 16.9
Procedure: as §1, §2, §3
In this example COMPOUND 1 was tested in B6 D2 F1 female mice challenged with Lewis lung carcinoma. The median survival time of the test animals was compared to that of appropriate control animals.

[4] = 12 mg/kg (12.50 mg/kg in source)

In the case of `NC(=O)c1c[se]c([C@@H]2O[C@H](CO)[C@@H](O)[C@H]2O)n1` [COMPOUND 1, 2-β-D-ribofuranosylselenazole-4-carboxamide], the “solubility in aqueous media” value [1] is reported as “soluble in aqueous media”, the Cures (Lewis lung carcinoma [2]; 0.75 mg/kg) is reported as 0/10 and the “Percent Treated Animals/Control Animals (T/C)” value (Lewis lung carcinoma [2]; 0.75 mg/kg) is reported as 107%. The “Treated Group Survival Time” value (Lewis lung carcinoma [2]; 0.75 mg/kg) was 21.7, the Cures (Lewis lung carcinoma [2]; 1.50 mg/kg) was 0/10 and the “Percent Treated Animals/Control Animals (T/C)” value (Lewis lung carcinoma [2]; 1.50 mg/kg) was 110%. The “Treated Group Survival Time” value (Lewis lung carcinoma [2]; 1.50 mg/kg) was 22.3, the Cures (Lewis lung carcinoma [2]; 3.00 mg/kg) was 0/10 and the “Percent Treated Animals/Control Animals (T/C)” value (Lewis lung carcinoma [2]; 3.00 mg/kg) was 153%. For the same molecule, the “Treated Group Survival Time” value (Lewis lung carcinoma [2]; 3.00 mg/kg) was 31.0, the DN2 level activity (Lewis lung carcinoma [2]; 3 mg/kg, percent T/C greater than 150) was “achieved DN2 level activity” and the Cures (Lewis lung carcinoma [2]; 6.00 mg/kg) was 5 out of 10 and 5/10. The “Percent Treated Animals/Control Animals (T/C)” value (Lewis lung carcinoma [2]; 6.00 mg/kg) was 297%, the “Treated Group Survival Time” value (Lewis lung carcinoma [2]; 6.00 mg/kg) was 60.0 and the Cures (Lewis lung carcinoma [2]; 12.00 mg/kg) was 9/10. The “Percent Treated Animals/Control Animals (T/C)” value (Lewis lung carcinoma [2]; 12.00 mg/kg) was 297%, the “Treated Group Survival Time” value (Lewis lung carcinoma [2]; 12.00 mg/kg) was 60.0 and the Cures (Lewis lung carcinoma [2]; 24.00 mg/kg) was 9 out of 10 and 9/10. For the same molecule, the “Percent Treated Animals/Control Animals (T/C)” value (Lewis lung carcinoma [2]; 24.00 mg/kg) was 297%, the “Treated Group Survival Time” value (Lewis lung carcinoma [2]; 24.00 mg/kg) was 60.0 and the “antitumor activity in words” value (Lewis lung carcinoma [2]; mouse, in vivo) was “effective antitumor agent”. The toxicity to cells (Vero cells) was “non-toxic”, the IC50 (P388) was 0.27 µM and the “antiviral activity in words” value (VSV; HeLa cells, Rhabdoviridae (VSV)) was “Excellent antiviral activity”. The “Virus Rating” value (VSV; HeLa) was 2.1, the “Virus Rating” value (VSV; Vero) was 0.4 and the EC50 (VSV; HeLa) was 9 µg/mL (≈ 29.3 µM). The EC50 (VSV; Vero) was 1000 µg/mL (≈ 3260 µM), the “Virus Rating” value (Measles; HeLa) was 1.8 and the EC50 (Measles; HeLa) was 2 µg/mL (≈ 6.51 µM). For the same molecule, the EC50 (Measles; Vero) was 1 µg/mL (≈ 3.26 µM), the “Virus Rating” value (Measles; Vero) was 2.0 and the “antiviral activity in words” value (Ad-2; HeLa cells, Adenoviridae (Adeno-2)) was “Excellent antiviral activity”. The “Virus Rating” value (Ad-2; HeLa, >1.0 definite, 0.5-0.9 moderate, <0.5 slight or no activity) was 1.9, the EC50 (Ad-2; HeLa, read-out: ED50 (the source's name)) was 9 µg/mL (≈ 29.3 µM) and the “Virus Rating” value (HSV-2; HeLa) was 1.5. The EC50 (HSV-2; Human alphaherpesvirus 2, HeLa) was 4 µg/mL (≈ 13 µM), the EC50 (HSV-2; Human alphaherpesvirus 2, Vero) was 10 µg/mL (≈ 32.6 µM) and the “Virus Rating” value (HSV-2; Vero) was 1.5. For the same molecule, the “Virus Rating” value (Mumps; HeLa) was 1.0, the EC50 (Mumps; HeLa) was 1 µg/mL (≈ 3.26 µM) and the “Virus Rating” value (Mumps; Vero) was 1.7. For the same molecule, the EC50 (Mumps; Vero) was 5 µg/mL (≈ 16.3 µM), the “Virus Rating” value (Reo 3; HeLa) was 2.7 and the EC50 (Reo 3; HeLa) was 8 µg/mL (≈ 26 µM). For the same molecule, the “Virus Rating” value (Reo 3; Vero) was 1.8, the EC50 (Reo 3; Vero) was 1 µg/mL (≈ 3.26 µM) and the “antiviral activity in words” value (Cox B1; HeLa cells, Picornaviridae (Cox B1)) was “Excellent antiviral activity”. For the same molecule, the “Virus Rating” value (Cox B1; HeLa) was 1.8, the EC50 (Cox B1; HeLa) was 10 µg/mL (≈ 32.6 µM) and the “Virus Rating” value (Cox B1; Vero) was 1.7. For the same molecule, the EC50 (Cox B1; Vero) was 15 µg/mL (≈ 48.8 µM), the “type of antiviral activity” value (HSV-1; HSV-1, depending upon cell line) was “virusstatic” and the “Virus Rating” value (HSV-1; HeLa) was 1.4. The EC50 (HSV-1; Human alphaherpesvirus 1, HeLa) was 2 µg/mL (≈ 6.51 µM), the EC50 (HSV-1; Human alphaherpesvirus 1, Vero) was 30 µg/mL (≈ 97.7 µM) and the “Virus Rating” value (HSV-1; Vero) was 1.2. For the same molecule, the cytotoxicity in words (cell culture) was “low cytotoxicity”, the “growth inhibition in words” value (3 mouse tumor lines) was “inhibit growth in cell culture for representative tumor lines at extremely low dosage” and the Cures (Lewis lung carcinoma [3]; [4]) was 8 out of 10 and 8/10. The “Percent Treated Animals/Control Animals (T/C)” value (Lewis lung carcinoma [3]; [4]) was 355%, the “Treated Group Survival Time” value (Lewis lung carcinoma [3]; [4]) was 60.0 and the Cures (Lewis lung carcinoma [3]; 25 mg/kg) was 7 out of 10 and 7/10. The “Percent Treated Animals/Control Animals (T/C)” value (Lewis lung carcinoma [3]; 25 mg/kg) was 355%, the “Treated Group Survival Time” value (Lewis lung carcinoma [3]; 25 mg/kg) was 60.0 and the Cures (Lewis lung carcinoma [3]; 50 mg/kg) was 6 out of 10 and 6/10. The “Percent Treated Animals/Control Animals (T/C)” value (Lewis lung carcinoma [3]; 50 mg/kg) was 355%, the “Treated Group Survival Time” value (Lewis lung carcinoma [3]; 50 mg/kg) was 60.0 and the Cures (Lewis lung carcinoma [3]; 100 mg/kg) was 3/10. The “Percent Treated Animals/Control Animals (T/C)” value (Lewis lung carcinoma [3]; 100 mg/kg) was 120%, the “Treated Group Survival Time” value (Lewis lung carcinoma [3]; 100 mg/kg) was 20.3 and the Cures (Lewis lung carcinoma [3]; 200 mg/kg) was 0/10. For the same molecule, the “Treated Group Survival Time” value (Lewis lung carcinoma [3]; 200 mg/kg) was 10.7, the “survival of test animals in words” value (Lewis lung carcinoma [3]; 50, 25 and 12.50 mg/kg) was “all of the test animals survived” and the “antitumor activity in words” value (Lewis lung carcinoma [3]; median survival time versus control) was “effective antitumor agent”.
